Source: PMC11748363, “Antimicrobial and Antiproliferative Properties of 2‐Phenyl‐N‐(Pyridin‐2‐yl)acetamides” (Chemical Biology & Drug Design, 2025)
Where two headings read alike, the source gives them in different places.

Key:
[1] = system: Mycobacterium tuberculosis H37Ra; assay: Antimycobacterial microdilution broth MIC (resazurin), Mtb H37Ra; format: cell-based; details: for MIC: Mycobacterium tuberculosis, H37RA, read-out: MIC Mtb H37Ra
[2] = system: Mycolicibacterium smegmatis DSM 43465; assay: Antimycobacterial microdilution broth MIC (resazurin), M. smegmatis; format: cell-based; details: DSM43465, read-out: MIC M. smegmatis
[3] = system: Mycolicibacterium aurum DSM 43999; assay: Antimycobacterial microdilution broth MIC (resazurin), M. aurum; format: cell-based; details: DSM43999, read-out: MIC M. aurum
HepG2 cell line = assay: Cytotoxicity CellTiter 96, HepG2; format: cell-based, human; details: Homo sapiens, HepG2, 24 h, 24 h incubation; ^c compound precipitated in the testing medium; ^d over the limit of tested concentrations
[4] = system: Staphylococcus aureus CCM 4223, ATCC 29213; assay: Antibacterial microdilution broth MIC, SA; format: cell-based; details: Staphylococcus aureus
[5] = system: Staphylococcus aureus subsp. aureus CCM 4750, ATCC 43300 (MRSA); assay: Antibacterial microdilution broth MIC, MRSA; format: cell-based; details: Staphylococcus aureus
[6] = system: Staphylococcus epidermidis CCM 4418, ATCC 12228; assay: Antibacterial microdilution broth MIC, SE; format: cell-based
[7] = system: Enterococcus faecalis CCM 4224, ATCC 29212; assay: Antibacterial microdilution broth MIC, EF; format: cell-based
[8] = system: Escherichia coli CCM 3954, ATCC 25922; assay: Antibacterial microdilution broth MIC, EC; format: cell-based
[9] = system: Acinetobacter baumannii DSM 30007, ATCC 19606; assay: Antibacterial microdilution broth MIC, ACI; format: cell-based
[10] = system: Pseudomonas aeruginosa CCM 3955, ATCC 27853; assay: Antibacterial microdilution broth MIC, PA; format: cell-based
[11] = system: Candida albicans CCM 8320, ATCC 24433; assay: Antifungal microdilution broth MIC, CA
[12] = system: Candida krusei CCM 8271, ATCC 6258; assay: Antifungal microdilution broth MIC, CK; details: Pichia kudriavzevii
[13] = system: Candida parapsilosis CCM 8260, ATCC 22019; assay: Antifungal microdilution broth MIC, CP; details: Lodderomyces parapsilosis
[14] = system: Candida tropicalis CCM 8264, ATCC 750; assay: Antifungal microdilution broth MIC, CT
[15] = system: Aspergillus fumigatus ATCC 204305; assay: Antifungal microdilution broth MIC, AF
[16] = system: Lichtheimia corymbifera CCM 8077; assay: Antifungal microdilution broth MIC, LC
[17] = system: Trichophyton interdigitale CCM 8377, ATCC 9533; assay: Antifungal microdilution broth MIC, TI; details: Trichophyton interdigitale
[18] = system: Aspergillus flavus CCM 8363; assay: Antifungal microdilution broth MIC, AFla
[19] = system: Klebsiella pneumoniae CCM 4415, ATCC 10031; assay: Antibacterial microdilution broth MIC, KP

O=C(Cc1ccc(Cl)cc1)Nc1ccccn1 [Compound 19]
2.6: SI (selectivity index) ([1]; SI = HepG2 IC50 (μM)/MIC MtbH37Ra (μM), calculated for compounds with MIC ≤ 31.25 μg/mL)
> 500 µg/mL: MIC [3]
127 µM: MIC ([1]; Calculated from MIC (μg/mL))
> 500 µM: MIC ([5]; 24 h, read-out: MIC MRSA 24h) | MIC ([5]; 48 h, read-out: MIC MRSA 48h) | MIC ([7]; 24 h, read-out: MIC EF 24h) | MIC ([7]; 48 h, read-out: MIC EF 48h) | MIC ([8]; 24 h, read-out: MIC EC 24h) | MIC ([8]; 48 h, read-out: MIC EC 48h) | MIC ([9]; 24 h, read-out: MIC ACI 24h) | MIC ([9]; 48 h, read-out: MIC ACI 48h) | MIC ([10]; 24 h, read-out: MIC PA 24h) | MIC ([10]; 48 h, read-out: MIC PA 48h) | MIC ([11]; 24 h, read-out: MIC CA 24h) | MIC ([11]; 48 h, read-out: MIC CA 48h) | MIC ([14]; 24 h, read-out: MIC CT 24h) | MIC ([14]; 48 h, read-out: MIC CT 48h) | MIC ([15]; ATCC204305, 24 h, read-out: MIC AF 24h) | MIC ([15]; ATCC204305, 48 h, read-out: MIC AF 48h) | MIC ([16]; CCM8077, 24 h, read-out: MIC LC 24h) | MIC ([16]; CCM8077, 48 h, read-out: MIC LC 48h) | MIC ([18]; CCM8363, 24 h, read-out: MIC AFla 24h) | MIC ([18]; CCM8363, 48 h, read-out: MIC AFla 48h) | MIC KP 24h ([19]; 24h) | MIC KP 48h ([19]; 48h)
31.2 µg/mL: MIC [1] | MIC [2]
125 µM: MIC ([6]; 24 h, read-out: MIC SE 24h) | MIC ([6]; 48 h, read-out: MIC SE 48h)
333 µM: IC50 (HepG2 cell line)
500 µM: MIC ([4]; 24 h, read-out: MIC SA 24h) | MIC ([4]; 48 h, read-out: MIC SA 48h) | MIC ([12]; 24 h, read-out: MIC CK 24h) | MIC ([12]; 48 h, read-out: MIC CK 48h) | MIC ([13]; 24 h, read-out: MIC CP 24h) | MIC ([13]; 48 h, read-out: MIC CP 48h)
250 µM: MIC ([17]; 72 h, read-out: MIC TI 72h) | MIC ([17]; 120 h, read-out: MIC TI 120h)
